From ChEMBL document CHEMBL1765071, “Single photon emission computed tomography/positron emission tomography imaging and targeted radionuclide therapy of melanoma: new multimodal fluorinated and iodinated radiotracers” (J Med Chem, 2011)

How the values were obtained:
Mus musculus [1] = assay: Biodistribution in mouse B16F0 cells bearing C57B16 mouse tumor at 1.26 to 5.29 MBq, iv after 7 days; assay type: ADME, organism-based, Neoplasm; conditions: in vivo, 168 h
Mus musculus [2] = assay: Biodistribution in mouse B16F0 cells bearing C57B16 mouse tumor at 1.26 to 5.29 MBq, iv after 5 days; assay type: ADME, organism-based, Neoplasm; conditions: in vivo, 120 h
Mus musculus [3] = assay: Biodistribution in mouse B16F0 cells bearing C57B16 mouse tumor at 1.26 to 5.29 MBq, iv after 6 hrs; assay type: ADME, organism-based, Neoplasm; conditions: in vivo
Mus musculus [4] = assay: Biodistribution in mouse B16F0 cells bearing C57B16 mouse tumor at 1.26 to 5.29 MBq, iv after 72 hrs; assay type: ADME, organism-based, Neoplasm; conditions: in vivo
Mus musculus [5] = assay: Biodistribution in mouse B16F0 cells bearing C57B16 mouse tumor at 1.26 to 5.29 MBq, iv after 1 hr; assay type: ADME, organism-based, Neoplasm; conditions: in vivo
Mus musculus [6] = assay: Biodistribution in mouse B16F0 cells bearing C57B16 mouse tumor at 1.26 to 5.29 MBq, iv after 3 hrs; assay type: ADME, organism-based, Neoplasm; conditions: in vivo
Mus musculus [7] = assay: Biodistribution in mouse B16F0 cells bearing C57B16 mouse tumor at 1.26 to 5.29 MBq, iv after 24 hrs; assay type: ADME, organism-based, Neoplasm; conditions: in vivo
Mus musculus [8] = assay: Biodistribution in mouse B16F0 cells bearing C57B16 mouse tumor at 1.26 to 5.29 MBq, iv after 14 days; assay type: ADME, organism-based, Neoplasm; conditions: in vivo, 336 h
Mus musculus [9] = assay: Biodistribution in mouse B16F0 cells bearing C57B16 mouse tumor at 1.26 to 5.29 MBq, iv after 10 days; assay type: ADME, organism-based, Neoplasm; conditions: in vivo, 240 h
Mus musculus [10] = assay: Biodistribution in mouse B16F0 cells bearing C57B16 mouse tumor assessed per volume of tissue at 7.4 MBq, iv after 4 hrs; assay type: ADME, organism-based, Neoplasm; conditions: in vivo
Mus musculus [11] = assay: Biodistribution in mouse B16F10 cells bearing C57B16 mouse tumor assessed per volume of tissue at 7.4 MBq, iv after 2 hrs; assay type: ADME, organism-based, Neoplasm, B16-F10; conditions: in vivo
Mus musculus [12] = assay: Biodistribution in mouse B16F10 cells bearing C57B16 mouse tumor assessed per volume of tissue at 7.4 MBq, iv after 4 hrs; assay type: ADME, organism-based, Neoplasm, B16-F10; conditions: in vivo
Mus musculus [13] = assay: Biodistribution in mouse B16F0 cells bearing C57B16 mouse tumor assessed per volume of tissue at 7.4 MBq, iv after 2 hrs; assay type: ADME, organism-based, Neoplasm; conditions: in vivo

| SMILES | Drug uptake (Mus musculus [1]) | Drug uptake (Mus musculus [2]) | Drug uptake (Mus musculus [3]) | Drug uptake (Mus musculus [4]) | Drug uptake (Mus musculus [5]) | Drug uptake (Mus musculus [6]) | Drug uptake (Mus musculus [7]) | Drug uptake (Mus musculus [8]) | Drug uptake (Mus musculus [9]) | Drug uptake (Mus musculus [10]) | Drug uptake (Mus musculus [11]) | Drug uptake (Mus musculus [12]) | Drug uptake (Mus musculus [13]) |
| --- | --- | --- | --- | --- | --- | --- | --- | --- | --- | --- | --- | --- | --- |
| CCN(CCNC(=O)c1cnc2cc([125I])ccc2n1)c1cccc(F)n1 | 0.2 % ID/g | 0.3 % ID/g | 1.8 % ID/g | 0.4 % ID/g | 2 % ID/g | 2.2 % ID/g | 0.9 % ID/g |  |  |  |  |  |  |
| CCN(CCNC(=O)c1ccc2cc([125I])ccc2c1)CCOc1cccnc1F.Cl | 2.1 % ID/g | 2.8 % ID/g | 7.4 % ID/g |  | 7.9 % ID/g | 8 % ID/g | 5.9 % ID/g | 0.6 % ID/g | 0.2 % ID/g |  |  |  |  |
| CCN(CCNC(=O)c1cccc2c(=O)c3cc([125I])ccc3[nH]c12)CCOc1cccnc1F.Cl | 4.3 % ID/g | 4.5 % ID/g | 13 % ID/g | 8.6 % ID/g | 10.7 % ID/g | 13 % ID/g | 16 % ID/g | 2 % ID/g | 2.7 % ID/g |  |  |  |  |
| CCN(CCNC(=O)c1cnc2cc(I)ccc2n1)CCOc1cccnc1[18F] |  |  |  |  |  |  |  |  |  | 0.6 %ID | 2.1 %ID | 0.2 %ID | 8.3 %ID |
| CCN(CC)CCNC(=O)c1cnc2cc([125I])ccc2n1.Cl.Cl | 3.4 % ID/g | 7.3 % ID/g | 29.6 % ID/g | 12.3 % ID/g | 21.8 % ID/g | 26.3 % ID/g | 28 % ID/g |  | 1.9 % ID/g |  |  |  |  |
| CCN(CCNC(=O)c1cnc2cc([125I])ccc2n1)CCc1ccnc(F)c1.Cl.Cl | 3 % ID/g | 5.2 % ID/g | 14.5 % ID/g | 7.7 % ID/g | 12.1 % ID/g | 13.3 % ID/g | 11.2 % ID/g | 1.1 % ID/g | 1.6 % ID/g |  |  |  |  |
| CCN(CCNC(=O)c1cccc2nc3cc([125I])ccc3nc12)CCOc1cccnc1F.Cl.Cl | 2 % ID/g | 3.7 % ID/g | 13.8 % ID/g | 5.8 % ID/g | 11.4 % ID/g | 12.3 % ID/g | 13.8 % ID/g | 0.7 % ID/g | 1.2 % ID/g |  |  |  |  |
| CCN(CCCc1ccnc(F)c1)CCNC(=O)c1cnc2cc([125I])ccc2n1.Cl.Cl | 2.5 % ID/g | 5.1 % ID/g | 14.1 % ID/g | 9.5 % ID/g | 9.1 % ID/g | 9.3 % ID/g | 16.3 % ID/g | 0.7 % ID/g | 1.4 % ID/g |  |  |  |  |
| CCN(CCNC(=O)c1ccc2cncc([125I])c2n1)CCOc1cccnc1F.Cl.Cl | 1.1 % ID/g | 1.6 % ID/g | 5.3 % ID/g | 3.3 % ID/g | 5.6 % ID/g | 5.5 % ID/g | 5.2 % ID/g | 0.4 % ID/g | 0.5 % ID/g |  |  |  |  |
